According to publication PMC5259778, “Candidate pheromone receptors of codling moth Cydia pomonella respond to pheromones and kairomones” (Scientific Reports, 2017):

Tested on: CpomOrco + OR1
Assay: Whole-cell patch-clamp recording of HEK293T cells expressing CpomOrco + OR1
Type: cell-based, Cydia pomonella
Conditions: VUAA3 200 μM, n = 37
Method: To test transient expression of CpomORs for calcium imaging or patch-clamp recording experiments, 35-mm petri dishes containing semi-confluent HEK293T cells were transiently transfected. To transfect cells with CpomOrco, we used 1.0 μg of pcDNA5/TO/CpomOrco DNA. In order to promote expression of the OR[51], we used double aliquots for pcDNA5/TO/CpomOR DNAs (2.0 μg), combined with 1.0 μg of pcDNA5/TO/CpomOrco for co-transfections (CpomOrco + ORs). […] In patch-clamp recordings, 1.0 μg of a separate plasmid DNA (pXOOM, Clontech) carrying the coding sequence for a green fluorescent protein (GFP) was used to report expression. In order to report candidate OR-expressing cells, expression of both fluorescent reporter genes was under the regulation of the same promoter for CpomOR genes (CMV). Transfection DNAs were dissolved in 100 μL sterile DMEM, mixed with 3.0 μL Calfectin (SignaGen, Rockville, MD, USA) following the recommended protocol. […] The currents were measured with a 200B patch-clamp amplifier (Molecular Devices) and a digital interface (Digidata 1320 A, Molecular Devices), low pass filtered at 5.0 kHz, sampled at 1-2 kHz. […] The OR channel current noise was recorded using outside-out patches excised from HEK293T cells and evoked by stimulation with 250 μM VUAA3. […]

SMILES: CCn1c(SCC(=O)Nc2ccc(C(C)C)cc2)nnc1-c1ccncc1 [VUAA3, acetamide,2-[[4-ethyl-5-(4-pyridinyl)-4H-1,2,4-triazol-3-yl]thio]-N-[4-(1-methylethyl)phenyl]-]
- inward current amplitude, variation: −49 to −1165 pA
- inward current mean amplitude: −431 ± 54 pA
